Earlier results on 3 compounds are cited in patent US7056858B2 (Varian, Inc., priority 2002, dated 2006).

Each structure is given as a SMILES string.

For this data set the following is noted: for π value: dipolarity/dipolarizability descriptor; for Σα value: hydrogen-bond acidity descriptor; for Σβ value: hydrogen-bond basicity descriptor.

For the compound `CN(C)C=O` [N,N dimethylformamide], the π value is 0.56, the Σα value is 0.00 and the Σβ value is given as 0.44.
As for `CN1CCCC1=O` [N-methylpyrrolidone], the π value was 0.57, the Σα value is 0.00 and the Σβ value is 0.43.
In the case of `NC=O` [formamide], the π value was 0.46, the Σα value is on record as 0.33 and the Σβ value is on record as 0.21.
